According to patent EP4268823A1, “COMPOUND FOR TREATING NEUROINFLAMMATION” (Universitätsklinikum Hamburg-Eppendorf, priority 2022, dated 2023):

What was measured:
cyclooxygenase-2 (COX-2) = experiment: COX-2 immunostaining after glutamate stimulation; format: cell-based, mouse; settings: glutamate excitotoxicity ± UNC0642
Protocol: For primary cortical cultures pregnant C57BL/6J, or G9afl/fl;Snap25-Cre mice were euthanized. To ensure comparability between genotypes, only embryos from heterozygous breeding's were used. Brainstem tissue of each embryo for genotyping was reserved and cortices were isolated, dissociated and cells were plated at a density of 1 × 10^5 cells per 1 cm^2 on poly-D-lysine-coated wells (5 µM Sigma-Aldrich, cat. no. A-003-M). If not stated otherwise, cells were maintained in neurobasal plus medium (supplemented with B27 plus, penicillin, streptomycin and L-glutamine; Gibco, cat. no. A3582901) at 37°C, 5% CO^2 and a relative humidity of 98%, and treated with 1 µM cytarabine (Sigma-Aldrich, cat. no. BP383) at 1 day in vitro (div) to inhibit glial cell proliferation. If no cytarabine was applied cells were maintained in PNBM medium (supplemented with neural cell survival factor, gentamycin and L-glutamine; Lonza). Throughout, cultures after 14-23 div were used for experiments. G9a inhibitor UNC0642 was used in a concentration of 1 µM and cultures were pre-treated 24 hours before further experimental procedures.
(§1) Immunocytochemistry was performed as described previously (15). […] Immunostainings were analyzed with a Zeiss LSM 700 confocal microscope.

G9a = molecular target: T1, G9a (Homo sapiens, UniProt Q96KQ7); experiment: H3K9me2 immunostaining in hiPSC neurons after erastin; format: cell-based; settings: erastin + UNC0642
T1 construct: H3K9me2 immunostaining and quantification in response to ferroptosis induction with erastin in hiPSC neurons; endogenous in cells; host or cells: neurons differentiated from human iPSCs (ZIPi013-B)
T1 sequence (Q96KQ7 1-1210): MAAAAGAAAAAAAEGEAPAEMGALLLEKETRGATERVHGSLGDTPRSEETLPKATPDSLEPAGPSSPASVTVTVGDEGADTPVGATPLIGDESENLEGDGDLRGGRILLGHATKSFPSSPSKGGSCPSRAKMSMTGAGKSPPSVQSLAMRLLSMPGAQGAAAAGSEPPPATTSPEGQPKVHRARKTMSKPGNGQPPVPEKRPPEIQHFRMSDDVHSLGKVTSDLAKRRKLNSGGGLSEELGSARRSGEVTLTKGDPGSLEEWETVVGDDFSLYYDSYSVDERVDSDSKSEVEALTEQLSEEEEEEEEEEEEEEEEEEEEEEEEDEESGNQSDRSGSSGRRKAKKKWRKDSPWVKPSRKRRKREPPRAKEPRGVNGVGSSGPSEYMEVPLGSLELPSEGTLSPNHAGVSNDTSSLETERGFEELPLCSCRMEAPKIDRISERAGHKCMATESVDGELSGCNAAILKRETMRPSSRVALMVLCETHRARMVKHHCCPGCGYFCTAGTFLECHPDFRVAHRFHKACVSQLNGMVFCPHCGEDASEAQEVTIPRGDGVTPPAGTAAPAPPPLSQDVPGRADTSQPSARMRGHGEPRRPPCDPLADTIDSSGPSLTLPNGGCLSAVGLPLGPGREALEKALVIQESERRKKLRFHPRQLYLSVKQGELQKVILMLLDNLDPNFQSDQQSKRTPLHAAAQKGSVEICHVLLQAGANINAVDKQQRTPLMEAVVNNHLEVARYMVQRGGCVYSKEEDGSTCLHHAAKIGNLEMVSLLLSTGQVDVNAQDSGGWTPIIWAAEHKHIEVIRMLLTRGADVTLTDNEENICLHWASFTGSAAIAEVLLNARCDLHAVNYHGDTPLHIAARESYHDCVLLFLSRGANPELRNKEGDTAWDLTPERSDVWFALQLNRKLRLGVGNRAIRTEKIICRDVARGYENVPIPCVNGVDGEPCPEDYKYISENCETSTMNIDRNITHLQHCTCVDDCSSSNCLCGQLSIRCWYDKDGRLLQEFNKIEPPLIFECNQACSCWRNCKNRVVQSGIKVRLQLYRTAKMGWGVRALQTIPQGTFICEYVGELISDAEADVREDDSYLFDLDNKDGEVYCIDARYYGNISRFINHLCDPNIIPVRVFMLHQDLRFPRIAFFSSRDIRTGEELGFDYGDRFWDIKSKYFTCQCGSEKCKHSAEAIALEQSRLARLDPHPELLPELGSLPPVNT
Source text: Human iPSCs (ZIPi013-B) (83) were maintained under feeder-free conditions on Matrigel (Corning)-coated plates in mTeSR1 medium (Stem Cell Technologies, cat. no. 85850). For neuronal induction, iPSCs were dissociated with Accutase and seeded at a density of 3 × 10^6 cells per well on AggreWell800 plates (10,000 cells per embryoid body (EB), Stem Cell Technologies) in SMADi Neural Induction Medium (SMADi NIM, Stem Cell Technologies, cat. no. 08582) supplemented with […] (Stem Cell Technologies, cat. no. 72302). On day 6, EBs were harvested and cultivated on Matrigel-coated plates in SMADi NIM for 12 days. Newly formed neural rosettes were manually picked and cultured for another 4 days. In order to release neural precursor cells (NPCs), neural rosettes were dissociated with Accutase and were maintained for several passages at high density in Neural Progenitor Medium (Stem Cell Technologies, cat. no. 05833) on Matrigel-coated plates. HiPSC-derived NPCs were differentiated into neurons as previously described (84, 85) with some modifications. Briefly, NPCs were seeded at a density of 1 × 10^5 cells per cm^2 in Neural Progenitor Medium onto Matrigel-coated plates. […]
as §1

SMILES: COc1cc2c(NC3CCN(C(C)C)CC3)nc(N3CCC(F)(F)CC3)nc2cc1OCCCN1CCCC1 [UNC0642, 2-(4,4-difluoropiperidin-1-yl)-6-methoxy-N-[1-(propan-2-yl)piperidin-4-yl]-7-[3-(pyrrolidin-1-yl)propoxy]quinazolin-4-amine]
- induction of COX-2-positive cells (cyclooxygenase-2 (COX-2)): almost completely abolished its induction
- increase of H3K9me2 levels in response to erastin-induced ferroptosis (G9a): rescued
